This is an account of results in US8119629B2, “Carboxamide GABAA α2 modulators” (Bristol-Meyers Squibb Company, priority 2007, dated 2012).

Structures can show the parent of a compound that is named as a salt. Bounds are passed on as bounds.

In general, Emax refers to the greatest response seen or fitted, relative to the assay's reference.

The test addresses T1, rat GABAA α2β2γ2 Receptors (Rattus norvegicus, UniProt P23576).
T1 construct: expressed in transfected cells; pIRES Neo2 / Hygro2 / Puro2 vectors
The test can be described thus: PatchXpress 7000A automated parallel patch-clamp: potentiation of GABA EC20 current in HEK293 cells. Format: cell-based. Conditions: percent increase in mean GABA EC20 current response, HEK293 cells stably expressing rat GABAA α2β2γ2, voltage-clamped at −60 mV; for Emax: read-out: GABAA α2 EP EMAX (%). The procedure:
Cell Line Generation and Transient Expression. In order to generate stable clonal lines expressing GABAA configurations containing α2β2γ2 subunits, HEK293 cells were transfected with 2 μg of the subunit, using the Invitrogen Lipofectamine PLUS protocol. The following DNA and vector were used for the stable transfection: α2 subunits in pIRES Neo2, β2 subunit in pIRES Hygro2, and a γ2 subunit in pIRES Puro2. Transfectants were selected with G418, Hygromycin B, and Puromycin antibiotics and cloned by limiting dilution. For transient expression, transfections were performed using the Amaxa transfection protocol and 2 μg DNA of the GABAA receptor subunit using Amaxa transfection protocol. Cells were used for experiments 24-72 hrs post transfection.
PatchXpress® 7000A Automated Parallel Patch-Clamp System. HEK293 cells stably expressing recombinant the rat GABAA/α2β2γ2 configuration were harvested by a single DPBS wash followed by 0.025% Trypsin-EDTA treatment for one minute at room temperature. A 6-ml cell suspension (1.7×10^5 cells/ml) was centrifuged at 500 rpm for 60 s. The cell pellet was gently agitated, suspended in 150 μl extracellular saline buffer, and transferred to a 1.5-ml tube.
After manually placing the AVIVA Biosciences SealChip 16™ in the holder of the PatchXpress®, the SealChip16™ was automatically prepared for application of the cells. Intracellular solution containing (in mM) CsCl, 135; EGTA, 11; MgCl2, 1; HEPES, 10; ATP, 5; GTP, 0.3 (pH 7.3 with CsOH, 290-300 mOsmol) was injected into the bottom of each chamber, and extracellular solution containing (in mM) NaCl, 140; KCl, 4; CaCl2, 1.8; MgCl2, 1; glucose, 10; HEPES, 10; ATP-K2, 5 (pH 7.4 with NaOH 305-310 mOsmol) was perfused into the top of the chambers through a 16-nozzle wash station. Throughout this period, the pressure controller maintained a positive pressure (+10 mmHg) from the intracellular side to keep the hole free of debris. Seal formation was achieved by a ramp increase in negative pressure from 0 to −35 mmHg at a rate of −3.5 mmHg/s every 10 s until a giga ohm seal was obtained and verified for 30 s.
Compounds were prepared from fresh DMSO stock and were transferred to a 96-well disposable glass insert compound plate for placement in the PatchXpress®. A full 10 point concentration-response curve for GABA was obtained for the GABA receptor cell line, from which an EC20 was estimated. Test compounds were assayed for their ability to potentiate the current response by an EC20 concentration of GABA. Each experiment began by two consecutive applications of GABA EC20 alone. Following formation of a giga-ohm seal, patch chambers were perfused with extracellular saline for 60 s to remove excess cells from the well. Cells were then voltage-clamped to −60 mV for the duration of the experiment. After 60 s, 30 μl (10 μl/s over 3 s) of GABA EC20 concentration, which elicited a GABA receptor-mediated inward Cl^− current generally in the order of 200-300 pA in peak amplitude, was added to each chamber. The GABA EC20 concentration was then washed out of the recording chamber after 5 s and washing with extracellular saline was continued for 60 s. After another 60 s, a second GABA EC20 concentration was applied under the same paradigm. […] Following the second GABA EC20 application, the lowest concentration of test compound in the presence of the GABA EC20 concentration was similarly applied. Ascending concentrations of the test compound were applied successively to an individual well in the presence of the GABA EC20 concentration.
Only cells meeting strict predetermined patch-clamp QC parameters, including seal resistance, membrane resistance, and holding current were included in data analysis. GABA current responses in the presence of test compound were measured and expressed as the mean of the initial control GABA EC20 current responses. The peak current amplitude was measured using DataXpress/pCLAMP9 (Axon Instruments). Linear leak subtraction was performed off-line. […]
(Patch clamp records ionic current or voltage across a cell membrane.)

T1 sequence (P23576 29-451): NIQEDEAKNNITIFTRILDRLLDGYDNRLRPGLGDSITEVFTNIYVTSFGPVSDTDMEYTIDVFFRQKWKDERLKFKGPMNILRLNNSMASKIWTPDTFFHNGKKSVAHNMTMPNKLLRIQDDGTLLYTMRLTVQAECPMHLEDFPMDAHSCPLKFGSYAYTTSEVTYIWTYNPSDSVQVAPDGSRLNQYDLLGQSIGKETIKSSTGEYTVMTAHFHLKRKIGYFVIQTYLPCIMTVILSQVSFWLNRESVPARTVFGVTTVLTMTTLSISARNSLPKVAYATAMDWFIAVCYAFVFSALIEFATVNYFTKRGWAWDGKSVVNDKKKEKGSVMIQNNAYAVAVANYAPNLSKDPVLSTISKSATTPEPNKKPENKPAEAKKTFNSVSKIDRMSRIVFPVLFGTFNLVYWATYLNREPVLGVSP
T1 sequence (P63138 25-474 partner limits assumed): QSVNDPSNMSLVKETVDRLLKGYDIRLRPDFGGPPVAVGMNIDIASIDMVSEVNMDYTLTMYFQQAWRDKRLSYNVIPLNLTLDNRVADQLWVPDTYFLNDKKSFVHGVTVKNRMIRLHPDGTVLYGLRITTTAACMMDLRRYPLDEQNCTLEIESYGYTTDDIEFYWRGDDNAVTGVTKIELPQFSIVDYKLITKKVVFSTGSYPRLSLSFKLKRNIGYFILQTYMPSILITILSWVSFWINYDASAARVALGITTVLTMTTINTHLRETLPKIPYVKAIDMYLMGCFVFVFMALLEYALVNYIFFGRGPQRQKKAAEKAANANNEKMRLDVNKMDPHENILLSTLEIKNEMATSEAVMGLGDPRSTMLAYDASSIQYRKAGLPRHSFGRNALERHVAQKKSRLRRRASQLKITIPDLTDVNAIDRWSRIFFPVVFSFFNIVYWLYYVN
T1 sequence (P18508 39-466 partner): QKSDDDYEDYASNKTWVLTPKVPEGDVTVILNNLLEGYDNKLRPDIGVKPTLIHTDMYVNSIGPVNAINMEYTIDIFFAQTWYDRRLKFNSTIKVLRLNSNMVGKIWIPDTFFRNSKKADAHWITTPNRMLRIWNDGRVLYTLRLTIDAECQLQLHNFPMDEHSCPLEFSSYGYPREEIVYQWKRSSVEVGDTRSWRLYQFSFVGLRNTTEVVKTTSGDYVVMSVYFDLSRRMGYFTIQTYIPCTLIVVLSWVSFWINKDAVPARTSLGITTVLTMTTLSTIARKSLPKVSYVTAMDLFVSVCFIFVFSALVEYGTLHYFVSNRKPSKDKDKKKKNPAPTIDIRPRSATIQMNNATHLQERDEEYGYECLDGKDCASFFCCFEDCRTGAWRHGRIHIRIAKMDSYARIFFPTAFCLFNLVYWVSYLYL

Consider `C#Cc1ccc2c(c1)C(c1ccccc1)=NCc1c(C(=O)N(CC)CC)ncn1-2` [Example 1, N,N-Diethyl-8-ethynyl-6-phenyl-4H-benzo[f]imidazo[1,5-a][1,4]diazepine-3-carboxamide], for which the maximal effect (Emax) lay within 400 to 500%.

With `C#Cc1ccc2c(c1)C(c1ccccc1)=NCc1c(C(=O)N[C@@H](COC)C3CC3)ncn1-2` [Example 14, N—((R)-1-Cyclopropyl-2-methoxyethyl)-8-ethynyl-6-phenyl-4H-benzo[f]imidazo[1,5-a][1,4]diazepine-3-carboxamide], the Emax fell in the range of 200 to 300%. Same read-out and setting: next, `C#Cc1ccc2c(c1)C(c1ccccc1)=NCc1c(C(N)=O)ncn1-2` [Example 3, 8-Ethynyl-6-phenyl-4H-benzo[f]imidazo[1,5-a][1,4]diazepine-3-carboxamide]: 300 to 400%; `C#Cc1ccc2c(c1)C(c1ccccc1)=NCc1c(C(=O)NCCOC(C)C)ncn1-2` [Example 20, 8-Ethynyl-N-(2-isopropoxyethyl)-6-phenyl-4H-benzo[f]imidazo[1,5-a][1,4]diazepine-3-carboxamide]: 400 to 500%; `C#Cc1ccc2c(c1)C(c1ccccc1)=NCc1c(C(=O)NCCO)ncn1-2` [Example 5, 8-Ethynyl-N-(2-hydroxyethyl)-6-phenyl-4H-benzo[f]imidazo[1,5-a][1,4]diazepine-3-carboxamide]: 400 to 500%. Consider `C#Cc1ccc2c(c1)C(c1ccccc1)=NCc1c(C(=O)NCCOC)ncn1-2` [Example 4, 8-Ethynyl-N-(2-methoxyethyl)-6-phenyl-4H-benzo[f]imidazo[1,5-a][1,4]diazepine-3-carboxamide Dihydrochloride], for which the Emax is more than 500%.

In the case of `C#Cc1ccc2c(c1)C(c1ccccc1)=NCc1c(C(=O)NCC(=O)O)ncn1-2` [Example 33, 2-(8-Ethynyl-6-phenyl-4H-benzo[f]imidazo[1,5-a][1,4]diazepine-3-carboxamido)acetic acid], the Emax is 400 to 500%. For the compound “N-Cyclopropyl-8-ethynyl-6-phenyl-4H-benzo[f]imidazo[1,5-a][1,4]diazepine-3-carboxamide [Example 11]”, the “GABAA α2 EP EMAX (%)” value is given as “** (300% < Emax < 400 **)”. Still for that read-out and setting: in the case of `C#Cc1ccc2c(c1)C(c1ccccc1)=NCc1c(C(=O)NCCOCCNC(=O)c3ncn4c3CN=C(c3ccccc3)c3cc(C#C)ccc3-4)ncn1-2` [Example 23, N,N′-(2,2′-Oxybis(ethane-2,1-diyl))bis(8-ethynyl-6-phenyl-4H-benzo[f]imidazo[1,5-a][1,4]diazepine-3-carboxamide)] it was “* (200% < Emax < 300 *)”.

Take `C#Cc1ccc2c(c1)C(c1ccccc1)=NCc1c(C(=O)NCCCOC)ncn1-2` [Example 18, 8-Ethynyl-N-(3-methoxypropyl)-6-phenyl-4H-benzo[f]imidazo[1,5-a][1,4]diazepine-3-carboxamide]: the Emax lay within 400 to 500%. Same read-out and setting: in the case of `C#Cc1ccc2c(c1)C(c1ccccc1)=NCc1c(C(=O)NCc3ccco3)ncn1-2` [Example 35, 8-Ethynyl-N-(furan-2-ylmethyl)-6-phenyl-4H-benzo[f]imidazo[1,5-a][1,4]diazepine-3-carboxamide, dihydrochloride] it was 200 to 300%.
